Reference: ChEMBL document CHEMBL1131530, “Synthesis and biological activities of tricyclic conformationally restricted tetrahydropyrido annulated furo[2,3-d]pyrimidines as inhibitors of dihydrofolate reductases” (J Med Chem, 1998)

T1: Dihydrofolate reductase (Mycobacterium avium, UniProt O30463)
T1 sequence (O30463 whole entry): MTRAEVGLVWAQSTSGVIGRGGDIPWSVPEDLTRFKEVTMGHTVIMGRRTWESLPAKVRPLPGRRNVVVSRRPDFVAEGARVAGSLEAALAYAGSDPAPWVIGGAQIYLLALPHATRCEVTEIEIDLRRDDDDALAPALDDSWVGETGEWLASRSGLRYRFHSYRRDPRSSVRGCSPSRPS

T2: Dihydrofolate reductase (Pneumocystis carinii, UniProt P16184)
T2 sequence (P16184 whole entry): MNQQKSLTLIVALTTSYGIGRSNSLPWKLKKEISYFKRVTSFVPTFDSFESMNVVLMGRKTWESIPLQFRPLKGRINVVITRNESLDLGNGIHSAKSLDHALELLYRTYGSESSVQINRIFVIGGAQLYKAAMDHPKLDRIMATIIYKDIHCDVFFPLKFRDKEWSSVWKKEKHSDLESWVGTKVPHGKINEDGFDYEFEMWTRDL

T3: Bifunctional dihydrofolate reductase-thymidylate synthase (Toxoplasma gondii, UniProt Q07422)
T3 sequence (Q07422 whole entry): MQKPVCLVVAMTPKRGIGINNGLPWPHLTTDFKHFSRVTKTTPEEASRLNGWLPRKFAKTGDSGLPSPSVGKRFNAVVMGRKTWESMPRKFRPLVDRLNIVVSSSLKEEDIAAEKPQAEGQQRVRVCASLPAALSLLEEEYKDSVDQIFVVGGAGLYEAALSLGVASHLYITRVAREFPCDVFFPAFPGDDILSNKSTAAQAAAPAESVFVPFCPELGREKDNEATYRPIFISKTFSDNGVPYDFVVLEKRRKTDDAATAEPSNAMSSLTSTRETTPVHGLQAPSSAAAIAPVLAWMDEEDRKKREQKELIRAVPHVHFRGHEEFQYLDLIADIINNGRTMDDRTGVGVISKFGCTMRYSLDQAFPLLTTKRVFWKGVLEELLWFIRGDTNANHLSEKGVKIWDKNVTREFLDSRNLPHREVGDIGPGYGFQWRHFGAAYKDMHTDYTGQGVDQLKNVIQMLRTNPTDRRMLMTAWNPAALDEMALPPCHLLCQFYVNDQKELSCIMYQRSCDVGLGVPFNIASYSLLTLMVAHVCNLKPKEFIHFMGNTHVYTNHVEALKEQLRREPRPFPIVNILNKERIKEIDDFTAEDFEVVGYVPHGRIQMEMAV

T4: Dihydrofolate reductase (Rattus norvegicus, UniProt Q920D2)
T4 sequence (Q920D2 whole entry): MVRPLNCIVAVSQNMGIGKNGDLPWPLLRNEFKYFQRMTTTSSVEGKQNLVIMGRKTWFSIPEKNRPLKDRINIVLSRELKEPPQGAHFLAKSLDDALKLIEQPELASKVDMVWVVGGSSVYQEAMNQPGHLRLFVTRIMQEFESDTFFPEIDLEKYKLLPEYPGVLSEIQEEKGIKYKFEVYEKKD

T5: Folylpolyglutamate synthase, mitochondrial (Homo sapiens) (UniProt Q05932)
T5 sequence (whole entry): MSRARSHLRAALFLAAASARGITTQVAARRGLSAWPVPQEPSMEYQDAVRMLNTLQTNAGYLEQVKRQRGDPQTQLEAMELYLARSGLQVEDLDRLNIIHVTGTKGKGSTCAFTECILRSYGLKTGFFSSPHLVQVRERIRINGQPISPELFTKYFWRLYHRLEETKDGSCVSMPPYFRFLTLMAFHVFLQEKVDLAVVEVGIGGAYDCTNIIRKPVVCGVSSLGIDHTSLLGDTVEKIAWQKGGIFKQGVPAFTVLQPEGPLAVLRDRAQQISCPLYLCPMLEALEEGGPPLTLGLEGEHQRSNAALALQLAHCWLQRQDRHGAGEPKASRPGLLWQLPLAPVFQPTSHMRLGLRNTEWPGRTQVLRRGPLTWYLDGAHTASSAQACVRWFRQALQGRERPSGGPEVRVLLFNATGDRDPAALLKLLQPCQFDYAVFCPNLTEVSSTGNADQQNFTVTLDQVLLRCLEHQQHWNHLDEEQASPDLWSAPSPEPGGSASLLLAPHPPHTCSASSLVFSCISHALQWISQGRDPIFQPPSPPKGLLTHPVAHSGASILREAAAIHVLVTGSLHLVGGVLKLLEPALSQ

B1: Folylpolyglutamate synthase, mitochondrial (Homo sapiens), Q05932 (protein)
chain: T5 sequence (whole entry)

Legend:
Dihydrofolate reductase [1] = biological target: T1, Dihydrofolate reductase; experiment: Inhibitory concentration was evaluated against […] Dihydrofolate reductase enzyme in Mycobacterium avium.
[2] = Selectivity for dihydrofolate reductase enzyme in rat liver Toxoplasma gondii
[3] = Selectivity for dihydrofolate reductase enzyme in rat liver and Pneumocystis carinii
Dihydrofolate reductase [4] = biological target: T2, Dihydrofolate reductase
Description: Inhibition of Pneumocystis carinii dihydrofolate reductase

[5] = biological target: T3, Bifunctional dihydrofolate reductase-thymidylate synthase
Description: Inhibition of Toxoplasma gondii Dihydrofolate reductase

Dihydrofolate reductase [6] = biological target: T4, Dihydrofolate reductase
Description: Inhibition of Dihydrofolate reductase of rat liver

CCRF-CEM [7] = experiment: Growth inhibition was measured as for inhibition of growth in CCRF-CEM cells.; format: functional, cell-based; conditions: Homo sapiens
CCRF-CEM [8] = experiment: Growth inhibition was measured for inhibition of growth in CCRF-CEM sublines resistant to MTX solely as a result of decreased polyglutamation.; format: functional, cell-based; conditions: Homo sapiens
[9] = biological target: T5, Folylpolyglutamate synthase, mitochondrial (Homo sapiens); experiment: Activity of substrate for human FPGS was evaluated and compared to that of aminopterin (AMT)
Homo sapiens = species on record: Homo sapiens; experiment: Growth inhibition was measured for inhibition of growth in FaDu human squamous cell carcinoma of the head and neck.; format: functional
CCRF-CEM [10] = experiment: Growth inhibition was measured for inhibition of growth in CCRF-CEM subline resistant to MTX solely as a result of a 20-fold increase in wild-type DHFR protein and activity.; format: functional, cell-based; conditions: Homo sapiens
[11] = substrate: Nc1nc(N)c2c3c(oc2n1)CN(Cc1ccc(C(=O)N[C@@H](CCC(=O)O)C(=O)O)cc1)CC3; experiment: Binding affinity was evaluated on CCRF-CEM human leukemia cell folyl-poly-glutamate synthetase.; format: cell-based

Molecule	IC50 (Dihydrofolate reductase [1]) [µM]	Selectivity ratio [2]	Selectivity ratio [3]	IC50 (Dihydrofolate reductase [4]) [µM]	IC50 [5] [µM]	IC50 (Dihydrofolate reductase [6]) [µM]	other results
Nc1nc(N)c2c3c(oc2n1)CN(Cc1c(Cl)cccc1Cl)CC3	> 81.2	2.5	2	40.5	31.7	81.2	
Nc1nc(N)c2c(CNc3ccc(C(=O)NC(CCC(=O)O)C(=O)O)cc3)coc2n1 (configuration not stated)		1.9	1.4				
Nc1nc(N)c2c3c(oc2n1)CN(Cc1ccc(C(=O)N[C@@H](CCC(=O)O)C(=O)O)cc1)CC3	0.97	4	7.9		21.5	85.8	EC50 (CCRF-CEM [7]): 3.6 µM; EC50 (CCRF-CEM [8]): > 50 µM; Relative Vmax [9]: 0.29; EC50 (Homo sapiens): > 100 µM; EC50 (CCRF-CEM [10]): 10.3 µM
Nc1nc(N)c2c3c(oc2n1)CN(Cc1ccccc1)CC3	> 15	> 10		> 9	1.4	15	
Nc1nc(N)c2nc(CNc3ccc(C(=O)N[C@@H](CCC(=O)O)C(=O)O)cc3)cnc2n1							Relative Vmax [9]: 1
Nc1nc(N)c2c3c(oc2n1)CN(Cc1ccc(Cl)cc1Cl)CC3	> 50	3.9	2.3	22.6	13.1	50.9	
Nc1nc(N)c2c3c(oc2n1)CN(Cc1ccc(Cl)c(Cl)c1)CC3	> 20		0.9	24.1	22.3	20.6	
CN(Cc1cnc2nc(N)nc(N)c2n1)c1ccc(C(=O)N[C@@H](CCC(=O)O)C(=O)O)cc1 [METHOTREXATE]							EC50 (Homo sapiens): 0.0172 µM
CN(Cc1coc2nc(N)nc(N)c12)c1ccc(C(=O)NC(CCC(=O)O)C(=O)O)cc1 (configuration not stated)		0.021	12.2				
COc1cc(CN2CCc3c(oc4nc(N)nc(N)c34)C2)cc(OC)c1OC	12.1			> 35	> 35	> 35	
COc1cc(CN2CCc3c(oc4nc(N)nc(N)c34)C2)cc(OC)c1	> 20			> 22.8	> 20.4	22.8	
B1							Km [11]: 6.2 µM
